Laboratory results as given in ChEMBL document CHEMBL3885861, “Open TG-GATES”.

Species on record: Rattus norvegicus
Assay: Open TG-GATES - Regimen: Daily Repeat
Format: toxicity, organism-based, Sprague-Dawley
Set-up: regimen Daily Repeat, gender Male, age 6 weeks
Conditions: in vivo, po, 1000 mg/kg, route gavage, dose level Middle; for APTT / Bas / Eos / Fbg / Hb / Ht / Lym / MCH / MCHC / MCV / Mono / Neu / PT / Plat / RBC / Ret / WBC: tissue Blood; for KIDNEY_L / KIDNEY_R / KIDNEY_TOTAL: tissue Kidney; for LIVER: tissue Liver; for A/G / ALP / ALT / AST / BUN / CRE / Ca / Cl / DBIL / GLC / IP / K / LDH / Na / PL / RALB / TBIL / TC / TG / TP / gamma-GTP: tissue Plasma

Work on `COc1ccc(O)c(C(C)(C)C)c1.COc1ccc(O)cc1C(C)(C)C` [BUTYLATED HYDROXYANISOLE] yielded a TERMINAL_BW (72 h, time 3 day) of 219.1 g, an APTT (72 h, time 3 day) of 16.1 s and a Bas (72 h, time 3 day) of 0.3%. For the same molecule, the Eos (72 h, time 3 day) was 0.7%, the Fbg (72 h, time 3 day) was 310.6 mg/dL and the Hb (72 h, time 3 day) was 12.6 g/dL. For the same molecule, the Ht (72 h, time 3 day) was 36.7%, the Lym (72 h, time 3 day) was 75.6% and the MCH (72 h, time 3 day) was 20.5 pg. The MCHC (72 h, time 3 day) was 34.3%, the MCV (72 h, time 3 day) was 59.6 fL and the Mono (72 h, time 3 day) was 3.1%. It also gave a Neu (72 h, time 3 day) of 19.4%, a PT (72 h, time 3 day) of 10.9 s and a Plat (72 h, time 3 day) of 134.7 x10_4/uL. For the same molecule, the RBC (72 h, time 3 day) was 615.6 x10_4/ul, the Ret (72 h, time 3 day) was 3.6% and the WBC (72 h, time 3 day) was 130.3 x10_2/uL. The KIDNEY_L (72 h, time 3 day) was 1 g, the KIDNEY_R (72 h, time 3 day) was 0.9 g and the KIDNEY_TOTAL (72 h, time 3 day) was 1.9 g. It also gave an LIVER (72 h, time 3 day) of 15 g, an A/G (72 h, time 3 day) of 0.8 and an ALP (72 h, time 3 day) of 1334 IU/L. It also gave an ALT (72 h, time 3 day) of 44.6 IU/L, an AST (72 h, time 3 day) of 65.6 IU/L and a BUN (72 h, time 3 day) of 16 mg/dL. For the same molecule, the CRE (72 h, time 3 day) was 0.2 mg/dL, the Ca (72 h, time 3 day) was 11.5 mg/dL and the Cl (72 h, time 3 day) was 104.6 meq/L. The DBIL (72 h, time 3 day) was 0.028 mg/dL, the GLC (72 h, time 3 day) was 171.4 mg/dL and the IP (72 h, time 3 day) was 7 mg/dL. For the same molecule, the K (72 h, time 3 day) was 3.9 meq/L, the LDH (72 h, time 3 day) was 71.8 IU/L and the Na (72 h, time 3 day) was 142.4 meq/L. It also gave a PL (72 h, time 3 day) of 200.8 mg/dL, an RALB (72 h, time 3 day) of 2.6 g/dL and a TBIL (72 h, time 3 day) of 0.092 mg/dL. It also gave a TC (72 h, time 3 day) of 115.2 mg/dL, a TG (72 h, time 3 day) of 76.2 mg/dL and a TP (72 h, time 3 day) of 5.9 g/dL. For the same molecule, the gamma-GTP (72 h, time 3 day) was 1.6 IU/L, the TERMINAL_BW ([…], time 7 day) was 247 g and the TERMINAL_BW ([…], time 14 day) was 309.8 g. For the same molecule, the TERMINAL_BW ([…], time 28 day) was 393.4 g, the APTT ([…], time 7 day) was 16.2 s and the Bas ([…], time 7 day) was 0.3%. For the same molecule, the Eos ([…], time 7 day) was 0.6%, the Fbg ([…], time 7 day) was 341 mg/dL and the Hb ([…], time 7 day) was 13.3 g/dL. For the same molecule, the Ht ([…], time 7 day) was 38.5%, the Lym ([…], time 7 day) was 79% and the MCH ([…], time 7 day) was 20.6 pg. It also gave an MCHC ([…], time 7 day) of 34.5%, an MCV ([…], time 7 day) of 59.7 fL and a Mono ([…], time 7 day) of 2%. The Neu ([…], time 7 day) was 17.1%, the PT ([…], time 7 day) was 11.6 s and the Plat ([…], time 7 day) was 156.6 x10_4/uL. The RBC ([…], time 7 day) was 645.8 x10_4/ul, the Ret ([…], time 7 day) was 5.7% and the WBC ([…], time 7 day) was 119.3 x10_2/uL. The APTT ([…], time 14 day) was 19.6 s, the Bas ([…], time 14 day) was 0.3% and the Eos ([…], time 14 day) was 0.7%. For the same molecule, the Fbg ([…], time 14 day) was 334.2 mg/dL, the Hb ([…], time 14 day) was 13.6 g/dL and the Ht ([…], time 14 day) was 39.6%. It also gave a Lym ([…], time 14 day) of 76.3%, an MCH ([…], time 14 day) of 19.9 pg and an MCHC ([…], time 14 day) of 34.3%. It also gave an MCV ([…], time 14 day) of 57.9 fL, a Mono ([…], time 14 day) of 2.4% and a Neu ([…], time 14 day) of 19.6%. The PT ([…], time 14 day) was 11.8 s, the Plat ([…], time 14 day) was 132.4 x10_4/uL and the RBC ([…], time 14 day) was 684.8 x10_4/ul. For the same molecule, the Ret ([…], time 14 day) was 3.9%, the WBC ([…], time 14 day) was 105.1 x10_2/uL and the APTT ([…], time 28 day) was 20.3 s. For the same molecule, the Bas ([…], time 28 day) was 0.4%, the Eos ([…], time 28 day) was 1% and the Fbg ([…], time 28 day) was 290.2 mg/dL. It also gave a Hb ([…], time 28 day) of 14.7 g/dL, a Ht ([…], time 28 day) of 41.5% and a Lym ([…], time 28 day) of 77.6%. It also gave an MCH ([…], time 28 day) of 19.5 pg, an MCHC ([…], time 28 day) of 35.4% and an MCV ([…], time 28 day) of 55 fL. The Mono ([…], time 28 day) was 1.8%, the Neu ([…], time 28 day) was 18.4% and the PT ([…], time 28 day) was 12.1 s. For the same molecule, the Plat ([…], time 28 day) was 119.1 x10_4/uL, the RBC ([…], time 28 day) was 754.6 x10_4/ul and the Ret ([…], time 28 day) was 2.2%. For the same molecule, the WBC ([…], time 28 day) was 117.9 x10_2/uL, the KIDNEY_L ([…], time 7 day) was 1 g and the KIDNEY_R ([…], time 7 day) was 1 g. The KIDNEY_TOTAL ([…], time 7 day) was 2 g, the KIDNEY_L ([…], time 14 day) was 1.2 g and the KIDNEY_R ([…], time 14 day) was 1.1 g. It also gave a KIDNEY_TOTAL ([…], time 14 day) of 2.3 g, a KIDNEY_L ([…], time 28 day) of 1.3 g and a KIDNEY_R ([…], time 28 day) of 1.3 g. It also gave a KIDNEY_TOTAL ([…], time 28 day) of 2.6 g, an LIVER ([…], time 7 day) of 13.6 g and an LIVER ([…], time 14 day) of 18 g. For the same molecule, the LIVER ([…], time 28 day) was 20 g, the A/G ([…], time 7 day) was 0.8 and the ALP ([…], time 7 day) was 1105 IU/L. For the same molecule, the ALT ([…], time 7 day) was 35.6 IU/L, the AST ([…], time 7 day) was 56.8 IU/L and the BUN ([…], time 7 day) was 16.4 mg/dL. The CRE ([…], time 7 day) was 0.2 mg/dL, the Ca ([…], time 7 day) was 11.3 mg/dL and the Cl ([…], time 7 day) was 105.4 meq/L. It also gave a DBIL ([…], time 7 day) of 0.024 mg/dL, a GLC ([…], time 7 day) of 171.8 mg/dL and an IP ([…], time 7 day) of 6.8 mg/dL. It also gave a K ([…], time 7 day) of 3.7 meq/L, an LDH ([…], time 7 day) of 62.8 IU/L and a Na ([…], time 7 day) of 143 meq/L. It also gave a PL ([…], time 7 day) of 188.2 mg/dL, an RALB ([…], time 7 day) of 2.8 g/dL and a TBIL ([…], time 7 day) of 0.054 mg/dL. For the same molecule, the TC ([…], time 7 day) was 103.4 mg/dL, the TG ([…], time 7 day) was 144.4 mg/dL and the TP ([…], time 7 day) was 6.4 g/dL. The gamma-GTP ([…], time 7 day) was 1.2 IU/L, the A/G ([…], time 14 day) was 0.7 and the ALP ([…], time 14 day) was 1071.8 IU/L. The ALT ([…], time 14 day) was 36.8 IU/L, the AST ([…], time 14 day) was 56.8 IU/L and the BUN ([…], time 14 day) was 19 mg/dL. For the same molecule, the CRE ([…], time 14 day) was 0.2 mg/dL, the Ca ([…], time 14 day) was 11.1 mg/dL and the Cl ([…], time 14 day) was 105 meq/L. For the same molecule, the DBIL ([…], time 14 day) was 0.022 mg/dL, the GLC ([…], time 14 day) was 169 mg/dL and the IP ([…], time 14 day) was 5.9 mg/dL. For the same molecule, the K ([…], time 14 day) was 3.8 meq/L, the LDH ([…], time 14 day) was 50 IU/L and the Na ([…], time 14 day) was 143.6 meq/L. It also gave a PL ([…], time 14 day) of 199.8 mg/dL, an RALB ([…], time 14 day) of 2.8 g/dL and a TBIL ([…], time 14 day) of 0.046 mg/dL. It also gave a TC ([…], time 14 day) of 103 mg/dL, a TG ([…], time 14 day) of 164.8 mg/dL and a TP ([…], time 14 day) of 6.6 g/dL. It also gave a gamma-GTP ([…], time 14 day) of 1.8 IU/L, an A/G ([…], time 28 day) of 0.7 and an ALP ([…], time 28 day) of 853 IU/L. The ALT ([…], time 28 day) was 35.6 IU/L, the AST ([…], time 28 day) was 55.6 IU/L and the BUN ([…], time 28 day) was 17.4 mg/dL. For the same molecule, the CRE ([…], time 28 day) was 0.3 mg/dL, the Ca ([…], time 28 day) was 11.2 mg/dL and the Cl ([…], time 28 day) was 104.4 meq/L. It also gave a DBIL ([…], time 28 day) of 0.018 mg/dL, a GLC ([…], time 28 day) of 183.8 mg/dL and an IP ([…], time 28 day) of 5.8 mg/dL. The K ([…], time 28 day) was 3.4 meq/L, the LDH ([…], time 28 day) was 58.2 IU/L and the Na ([…], time 28 day) was 145.2 meq/L. The PL ([…], time 28 day) was 161 mg/dL, the RALB ([…], time 28 day) was 2.7 g/dL and the TBIL ([…], time 28 day) was 0.058 mg/dL. The TC ([…], time 28 day) was 88.4 mg/dL, the TG ([…], time 28 day) was 115.4 mg/dL and the TP ([…], time 28 day) was 6.5 g/dL. It also gave a gamma-GTP ([…], time 28 day) of 1.4 IU/L.
